The values that follow come from patent US10722597B2, “Cyclodextrin-panobinostat adduct” (MIDATECH LTD., priority 2016, dated 2020).

A value given as a limit tells only on which side of the number the result lay.

The test system of data set [1] is HEPG2 (Hepatocellular carcinoma) cell line. Briefly: MTT cell viability (cytotoxicity). The data set is classed as cell-based. Particulars: HEPG2, 48 or 72 hrs exposure. The procedure:
(§1) Error bars indicate plus or minus standard deviation of triplicate samples. N=1 experimental replicate.
(§2) Cell viability was then assessed using MTT reagent.

Data set [2] has as its system U87MG (Glioblastoma) cell line. Briefly: MTT cell viability (cytotoxicity). The data set is classed as cell-based. Particulars: 48 or 72 hrs exposure. Here is the method:
as §1, §2

A short description of data set [3]: HPLC stability of 10 mM panobinostat stock solutions at room temperature. The class given is physicochemical. The procedure:
Samples were diluted to allow analysis by HPLC (to avoid overloading the system). Peak areas were measured for both solutions at time 0, 100 h and 150 h post preparation. Samples were stored at room temperature over the course of the analysis. Percentage change was calculated based on the peak area and compared to analysis at time zero. One replicate was analysed and 7.2 μl was injected (equivalent to 0.25 μg on column) for each sample. The concentration of the stock solutions assessed was 10 mM. Column: Ascentis Express Peptide, ES-C18, 10 cm×4.6 mm Mobile phases: 0.1% trifluoroacetic acid (TFA) in acetonitrile (organic) and 0.1% trifluoroacetic acid in water HPLC: Agilent 1260 infinity HPLC conditions used: […]

Data set [4] can be described thus: Solubility of panobinostat free base in aqueous media. The data set is classed as physicochemical. The procedure: The pH of the first aqueous solution is in the range 2.0 to 4.0, for example 2.5 to 3.5. Preferably, the pH of the first aqueous solution is about 3.0.
It is similarly insoluble in concentrated aqueous solutions of 2-hydroxypropyl-β-cyclodextrin (HP-β-CD) (450 mg/ml).

For the compound 2-hydroxypropyl-β-cyclodextrin, the “Toxicity (cell viability, MTT)” value in data set [1] and in data set [2] was “essentially non-toxic” in each case.

Consider `Cc1[nH]c2ccccc2c1CCNCc1ccc(/C=C/C(=O)NO)cc1` [Panobinostat, 2-(E)-N-hydroxy-3-[4[[[2-(2-methyl-1H-indol-3-yl)ethyl]amino]methyl]phenyl]-2-propenamide], for which the “Decrease of Panobinostat concentration” value was found to be 2.8% in data set [3] (DMSO solution, 100 hrs); 4.4% in data set [3] (DMSO solution, 150 hrs); 0.4% in data set [3] (citrate solution, 100 hrs); 1% in data set [3] (citrate solution, 150 hrs). In addition, in data set [4] (aqueous buffer, thermodynamic from solid, free base, citrate buffer at pH 3.0, read-out: Soluble concentration in citrate buffer), the solubility was at least 10 mM. Besides, in data set [4] (citrate buffer at pH 3.0), the “Solubility in citrate buffer” value is “soluble”. In addition, the “Solubility in concentrated aqueous 2-hydroxypropyl-β-cyclodextrin” value in data set [4] (free base, HP-β-CD 450 mg/ml) is reported as “insoluble”. Also, the Solubility in water result in data set [4] (free base, water) is “poorly soluble”.
